Assay results from ChEMBL document CHEMBL2046274, “Pyrazolo[4,3-c][1,2]benzothiazines 5,5-dioxide: a promising new class of Staphylococcus aureus NorA efflux pump inhibitors” (J Med Chem, 2012).
≈ marks a conversion by molar mass, not a printed value. Calls of active or inactive are those of the source. The rule behind the calls is not given here.

Experiments:
[1] = target: T1, Quinolone resistance protein NorA (Staphylococcus aureus) (UniProt P0A0J7); assay: Inhibition of norA-mediated EtBr efflux in Staphylococcus aureus SA1199B overexpressing norA and expressing A116E GrlA mutation at 50 uM by fluorometry
T1 sequence (whole entry): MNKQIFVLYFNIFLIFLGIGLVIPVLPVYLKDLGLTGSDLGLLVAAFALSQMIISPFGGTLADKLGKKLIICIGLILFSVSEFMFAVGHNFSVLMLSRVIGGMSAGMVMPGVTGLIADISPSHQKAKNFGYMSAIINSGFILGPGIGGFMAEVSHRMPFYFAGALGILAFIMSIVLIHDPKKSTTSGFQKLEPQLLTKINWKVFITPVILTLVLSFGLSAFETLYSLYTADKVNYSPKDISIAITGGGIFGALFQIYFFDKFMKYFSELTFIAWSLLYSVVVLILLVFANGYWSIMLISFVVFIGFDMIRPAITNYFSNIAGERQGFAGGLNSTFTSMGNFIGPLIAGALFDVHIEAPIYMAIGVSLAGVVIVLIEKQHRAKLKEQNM

Staphylococcus aureus [2] = assay: Antibacterial activity against norA-deficient Staphylococcus aureus SAK1902 by microdilution method; format: functional
Staphylococcus aureus [3] = assay: Antibacterial activity against wild type Staphylococcus aureus SA1199 expressing norA by microdilution method; format: functional
Staphylococcus aureus [4] = assay: Antibacterial activity against Staphylococcus aureus SA1199B overexpressing norA and expressing A116E GrlA mutation by microdilution method; format: functional
Staphylococcus aureus [5] = assay: Antibacterial activity against Staphylococcus aureus SAK2378 overexpressing norA by microdilution method; format: functional
[6] = target: T1, Quinolone resistance protein NorA (Staphylococcus aureus); assay: Inhibition of norA in wild type Staphylococcus aureus SA1199 expressing assessed as potentiation of ciprofloxacin MIC by checkerboard assay
[7] = target: T1, Quinolone resistance protein NorA (Staphylococcus aureus); assay: Inhibition of norA overexpressed in Staphylococcus aureus SA1199B coexpressing A116E GrlA mutation assessed as potentiation of ciprofloxacin MIC by checkerboard assay
[8] = Cytotoxicity against human HepG2 cells after 24 hrs by LDH release assay; format: cell-based
[9] = target: T1, Quinolone resistance protein NorA (Staphylococcus aureus); assay: Inhibition of norA overexpressed in Staphylococcus aureus SA1199B coexpressing A116E GrlA mutation assessed as fold reduction in ciprofloxacin MIC at >12.5 ug/mL by checkerboard assay
[10] = target: T1, Quinolone resistance protein NorA (Staphylococcus aureus); assay: Inhibition of norA in Staphylococcus aureus SA1199B overexpressing norA and expressing A116E GrlA mutation assessed as fold reduction in ciprofloxacin MIC at >6.25 ug/mL by checkerboard assay
[11] = target: T1, Quinolone resistance protein NorA (Staphylococcus aureus); assay: Inhibition of norA overexpressed in Staphylococcus aureus SAK2378 assessed as potentiation of CPX MIC by checkerboard assay
[12] = target: Quinolone resistance protein NorA (Staphylococcus aureus, UniProt P0A0J7, A116E); assay: Inhibition of norA-mediated EtBr efflux in Staphylococcus aureus SA1199B overexpressing norA and expressing A116E GrlA mutation by fluorometry
Staphylococcus aureus [13] = assay: Potentiation of CPX MIC against norA-deficient Staphylococcus aureus SAK1902 by checkerboard assay; format: functional, organism-based
[14] = target: T1, Quinolone resistance protein NorA (Staphylococcus aureus); assay: Inhibition of norA overexpressed in Staphylococcus aureus SA1199B coexpressing A116E GrlA mutation potentiation of EtBr MIC at >6.25 ug/mL by checkerboard assay

SMILES | inhibition [1] | MIC (Staphylococcus aureus [2]) | MIC (Staphylococcus aureus [3]) | MIC (Staphylococcus aureus [4]) | MIC (Staphylococcus aureus [5]) | inhibition [6] | inhibition [7] | also measured
O=S1(=O)Nc2c(-c3ccc(Cl)cc3)nn(-c3cccc(F)c3)c2-c2ccccc21 | 33.9% | – | – | – | – | – | – | –
Fc1ccc([C@@H]2CCNC[C@H]2COc2ccc3c(c2)OCO3)cc1 [PAROXETINE] | – | > 100 µg/mL | > 100 µg/mL | > 100 µg/mL | 100 µg/mL (≈ 304 µM) | inactive | Active | –
NS(=O)(=O)c1ccc(-n2nc(-c3ccc(Cl)cc3)c3c2-c2ccccc2S(=O)(=O)N3)cc1 | 29.8% | – | – | – | – | – | – | –
COC(=O)[C@H]1[C@H]2C[C@@H]3c4[nH]c5cc(OC)ccc5c4CCN3C[C@H]2C[C@@H](OC(=O)c2cc(OC)c(OC)c(OC)c2)[C@@H]1OC [RESERPINE] | – | > 100 µg/mL | > 100 µg/mL | > 100 µg/mL | > 100 µg/mL | inactive | Active | –
O=[N+]([O-])c1ccc(-n2nc(-c3ccc(Cl)cc3)c3c2-c2ccccc2S(=O)(=O)N3)cc1 | 76.9% | 25 µg/mL (≈ 55.2 µM) | 50 µg/mL (≈ 110 µM) | 50 µg/mL (≈ 110 µM) | 25 µg/mL (≈ 55.2 µM) | inactive | Active | CC50 at 24 h [8]: > 100 µg/mL; fold change (FC) [9]: 16; fold change (FC) [10]: 8; inhibition [11]: Active; IC50 [12]: 10 µM; Activity (Staphylococcus aureus [13]): Active
O=C(O)c1cn(C2CC2)c2cc(N3CCNCC3)c(F)cc2c1=O [CIPROFLOXACIN] | – | 0.31 µg/mL (≈ 0.936 µM) | 0.63 µg/mL (≈ 1.9 µM) | 10 µg/mL (≈ 30.2 µM) | 2.5 µg/mL (≈ 7.54 µM) | – | – | –
O=S1(=O)Nc2c(-c3ccc(Cl)cc3)nn(-c3ccc(F)cc3)c2-c2ccccc21 | 15.5% | – | – | – | – | – | – | –
CS(=O)(=O)Nc1ccc(-n2nc(-c3ccc(Cl)cc3)c3c2-c2ccccc2S(=O)(=O)N3)cc1 | 19.2% | – | – | – | – | – | – | –
CN1c2c(-c3ccc(Cl)cc3)nn(-c3cccc(C(F)(F)F)c3)c2-c2ccccc2S1(=O)=O | 0% | – | – | – | – | – | – | –
Cc1ccc(-c2cc(C(F)(F)F)nn2-c2ccc(S(N)(=O)=O)cc2)cc1 [CELECOXIB] | 64.5% | – | > 100 µg/mL | > 100 µg/mL | – | inactive | inactive | inhibition [14]: Active; IC50 [12]: > 40 µM
